This note sets out measurements from US8828992B2, “Substituted azole derivatives, pharmaceutical composition containing the derivatives, and method for treating Parkinson's disease using the same” (priority 2009, dated 2014).

In one assay the target is T1, Monoamineoxidase B type human-derived enzyme (Homo sapiens, UniProt P27338).
T1 sequence (P27338 1-520): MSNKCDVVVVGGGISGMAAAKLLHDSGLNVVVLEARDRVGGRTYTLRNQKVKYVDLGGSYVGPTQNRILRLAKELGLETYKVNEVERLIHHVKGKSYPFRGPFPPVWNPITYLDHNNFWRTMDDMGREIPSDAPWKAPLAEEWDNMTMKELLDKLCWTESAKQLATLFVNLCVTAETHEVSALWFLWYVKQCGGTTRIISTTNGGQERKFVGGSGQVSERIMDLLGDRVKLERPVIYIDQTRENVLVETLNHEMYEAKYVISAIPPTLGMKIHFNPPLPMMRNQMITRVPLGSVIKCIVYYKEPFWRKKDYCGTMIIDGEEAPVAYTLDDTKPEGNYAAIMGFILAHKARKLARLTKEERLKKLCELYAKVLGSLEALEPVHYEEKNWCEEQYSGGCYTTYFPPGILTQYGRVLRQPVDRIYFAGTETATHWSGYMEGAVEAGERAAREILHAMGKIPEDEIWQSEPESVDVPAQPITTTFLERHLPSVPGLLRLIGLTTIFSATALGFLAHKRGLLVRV
Put plainly: Inhibitory effects on the activity of MAO-B (Amplex Red fluorescence, benzylamine substrate). Type of assay: biochemical. Particulars: read-out: Inhibitory effects (%) on the activity of MAO-B. How it is done:
Monoamineoxidase A or B type human-derived enzyme (5 mg/ml) was each diluted with 0.05 M sodium phosphate buffer (pH 7.4) to yield a dilution of 1:200, and then 100 μl of an enzyme buffer containing 2 μl of a compound 1 solution at the corresponding concentration was placed in a test plate (flat-bottom) and incubated for 30 minutes.
100 μl of a working buffer containing 400 μM of Amplex Red reagent, 2 U/ml horseradish peroxidase, and 2 mM substrate (tyramine for MAO-A and benzylamine for MAO-B) in 0.05 M sodium phosphate buffer (pH 7.4) was mixed with a pre-incubated enzyme buffer at 1:1 and measured using fluorescence (EX: 563 nm & EM: 587 nm) for 30 minutes.
On to `NC(=O)OCc1cc(-c2ccc(OCCCCO)cc2)no1` [Example 57, carbamic acid 3-[4-(4-hydroxy-butoxy)-phenyl]-isoxazol-5-ylmethyl ester], for which the inhibition at 0.01 µM was determined as 25%.
The same measure, in the same setting: under `NC(=O)OCc1cc(-c2ccc(OCC3CCCC3)cc2)no1` [Example 193, Carbamic acid 3-(4-cyclopentylmethoxy-phenyl)-isoxazol-5-ylmethyl ester] stands 88.1%.

Still in this assay, the particulars now being: treatment concentration 10 nM; read-out: Inhibitory effects (%) on the activity of MAO-B.
In the case of `OCCNCc1cc(-c2ccc(OCc3ccccc3)cc2)no1` [Example 168, 2-{[3-(4-benzyloxy-phenyl)-isoxazol-5-ylmethyl]-amino}-ethanol], the inhibition at 0.01 µM came to 44.7%.
Same read-out and setting: the figure for `O=C(OCc1cc(-c2ccc(OCc3ccccc3)cc2)no1)N1CCCCC1` [Example 126, piperidine-1-carboxylic acid 3-(4-benzyloxy-phenyl)-isoxazol-5-ylmethyl ester] is 48.7%; for `NC(=O)OCc1cc(-c2ccc(NCc3cc(Cl)cc(Cl)c3)cc2)no1` [Example 93, carbamic acid 3-[4-(3,5-dichloro-benzylamino)-phenyl]-isoxazol-5-ylmethyl ester] it is 24.1%.
Same read-out and setting: the figure for `NC(=O)OCCc1cc(-c2ccc(OCc3ccccc3)cc2)no1` [Example 118, carbamic acid 2-[3-(4-benzyloxy-phenyl)-isoxazol-5-yl]-ethyl ester] is 25.7%; for `NC(=O)OCc1cc(-c2ccc(NCc3ccc(F)cc3)cc2)no1` [Example 76, Carbamic acid 3-[4-(4-fluoro-benzylamino)-phenyl]-isoxazol-5-ylmethyl ester] it is 87%; for `NC(=O)OCc1cc(-c2ccc(OCc3c(Cl)cccc3Cl)cc2)no1` [Example 23, carbamic acid 3-[4-(2,6-dichlorobenzyloxy)-phenyl]-isoxazol-5-ylmethyl ester] it is 92.7%.
In the case of `c1ccc(COc2ccc(-c3cc(Cn4ncnn4)on3)cc2)cc1` [Example 146, 2-[3-(4-benzyloxy-phenyl)-isoxazol-5-ylmethyl]-2H-tetrazole], the inhibition at 0.01 µM stood at 86%.
The same measure, in the same setting: the figure for `OC1CCN(Cc2cc(-c3ccc(OCc4ccccc4)cc3)no2)CC1` [Example 137, 1-[3-(4-benzyloxy-phenyl)-isoxazol-5-ylmethyl]-piperidin-4-ol] is 43.5%.
Take `Cc1ccc(CNc2ccc(-c3cc(COC(N)=O)on3)cc2)c(C)c1` [Example 103, Carbamic acid 3-[4-(2,4-dimethyl-benzylamino)-phenyl]-isoxazol-5-ylmethyl ester]: the inhibition at 0.01 µM was found to be 20.7%.
Still for that read-out and setting: under `Cc1ccc(CNc2ccc(-c3cc(COC(N)=O)on3)cc2)cc1` [Example 100, Carbamic acid 3-[4-(4-methyl-benzylamino)-phenyl]-isoxazol-5-ylmethyl ester] stands 23.7%; under `Cc1cccc(COc2ccc(-c3cc(COC(N)=O)on3)cc2)c1` [Example 200, carbamic acid 3-[4-(3-methyl-benzyloxy)-phenyl]-isoxazol-5-ylmethyl ester], 87.6%.
The same measure, in the same setting: under `Fc1ccc(COc2ccc(-c3cc(Cn4ccnc4)on3)cc2)cc1` [Example 156, 3-[4-(4-fluoro-benzyloxy)-phenyl]-5-imidazol-1-ylmethyl-isoxazole] stands 74.5%.
`NC(=O)OCc1cc(-c2ccc(NCc3cccc(C(F)(F)F)c3)cc2)no1` [Example 96, Carbamic acid 3-[4-(3-trifluoromethyl-benzylamino)-phenyl]-isoxazol-5-ylmethyl ester]: the inhibition at 0.01 µM came out at 40.9%.
For `CC(C)c1nccn1Cc1cc(-c2ccc(OCc3ccccc3)cc2)no1` [Example 179, 3-(4-benzyloxy-phenyl)-5-(2-isopropyl-imidazol-1-ylmethyl)-isoxazole], the inhibition at 0.01 µM is 26.7%.
Still for that read-out and setting: under `NC(=O)OCc1cc(-c2ccc(NCc3ccccc3Cl)cc2)no1` [Example 86, Carbamic acid 3-[4-(2-chloro-benzylamino)-phenyl]-isoxazol-5-ylmethyl ester] stands 83.3%.
On the same count and under the same terms, the figure for `NC(=O)OCc1cc(-c2ccc(OCc3ccccc3)cc2Cl)no1` [Example 5, carbamic acid 3-(4-benzyloxy-2-chloro-phenyl)-isoxazol-5-ylmethyl ester] is 88.3%; for `c1ccc(COc2ccc(-c3cc(Cn4ccnn4)on3)cc2)cc1` [Example 145, 1-[3-(4-benzyloxy-phenyl)-isoxazol-5-ylmethyl]-1H-[1,2,3]triazole] it is 39.2%.
Still for that read-out and setting: the figure for `Cc1ccccc1CNc1ccc(-c2cc(COC(N)=O)on2)cc1` [Example 99, Carbamic acid 3-[4-(2-methyl-benzylamino)-phenyl]-isoxazol-5-ylmethyl ester] is 79.7%; for `NC(=O)OCc1cc(-c2ccc(NCc3cccc(Cl)c3)cc2)no1` [Example 87, Carbamic acid 3-[4-(3-chloro-benzylamino)-phenyl]-isoxazol-5-ylmethyl ester] it is 78.6%.
Consider `NC(=O)OCc1cc(-c2ccc(NCc3c(Cl)ccc(Cl)c3Cl)cc2)no1` [Example 95, carbamic acid 3-[4-(2,3,6-trichloro-benzylamino)-phenyl]-isoxazol-5-ylmethyl ester], for which the inhibition at 0.01 µM stood at 24.3%.
The same measure, in the same setting: the figure for `O=C(OCc1cc(-c2ccc(OCc3ccccc3)cc2)no1)N1CCCC1` [Example 125, pyrrolidine-1-carboxylic acid 3-(4-benzyloxy-phenyl)-isoxazol-5-ylmethyl ester] is 65.8%; for `Cc1nccn1Cc1cc(-c2ccc(OCc3ccccc3)cc2)no1` [Example 140, 3-(4-benzyloxy-phenyl)-5-(2-methyl-imidazol-1-ylmethyl)-isoxazole] it is 91.7%; for `NC(=O)OCc1cc(-c2ccc(NCc3ccc(Cl)c(Cl)c3)cc2)no1` [Example 92, carbamic acid 3-[4-(3,4-dichloro-benzylamino)-phenyl]-isoxazol-5-ylmethyl ester] it is 75.2%.
As to `NC(=O)OCc1cc(-c2ccc(NCc3ccc(Cl)cc3)cc2)no1` [Example 85, Carbamic acid 3-[4-(4-chloro-benzylamino)-phenyl]-isoxazol-5-ylmethyl ester], the inhibition at 0.01 µM came out at 50.1%.

The assay is the same for the next values; noted with them: treatment concentration 100 nM.
For the compound `NC(=O)OCc1cc(-c2ccc(OCc3ccc(Cl)cc3Cl)cc2)no1` [Example 198, carbamic acid 3-[4-(2,4-dichlorobenzyloxy)-phenyl]-isoxazol-5-ylmethyl ester], the inhibition at 0.1 µM amounted to 95.7%.
`NC(=O)OCc1cc(-c2ccc(OCc3cccc(C(F)(F)F)c3)cc2)no1` [Example 31, Carbamic acid 3-[4-(3-trifluoromethyl-benzyloxy)-phenyl]-isoxazol-5-ylmethyl ester] came in with an inhibition at 0.1 µM of 96.2%.
The same measure, in the same setting: the figure for `NC(=O)OCc1cc(-c2ccc(OCc3ccc(F)cc3F)cc2)no1` [Example 196, carbamic acid 3-[4-(2,4-difluoro-benzyloxy)-phenyl]-isoxazol-5-ylmethyl ester] is 97.1%; for `NC(=O)OCc1cc(-c2ccc(OCc3cc(F)ccc3F)cc2)no1` [Example 197, carbamic acid 3-[4-(2,5-difluoro-benzyloxy)-phenyl]-isoxazol-5-ylmethyl ester] it is 96.7%.
